For twelve molecules, IC50 results are on record in patent US20100029609A1 (priority 2006, published 2010).

For the experiment, the target named is T1, human S1P1 receptors (Homo sapiens, UniProt P21453).
T1 construct: expressed in transfected cells; host or cells: HeLa (human cervix carcinoma, ATCC CCL2), HeLa-S1P1/Gα16 cell clone 1
T1 sequence (P21453 whole entry): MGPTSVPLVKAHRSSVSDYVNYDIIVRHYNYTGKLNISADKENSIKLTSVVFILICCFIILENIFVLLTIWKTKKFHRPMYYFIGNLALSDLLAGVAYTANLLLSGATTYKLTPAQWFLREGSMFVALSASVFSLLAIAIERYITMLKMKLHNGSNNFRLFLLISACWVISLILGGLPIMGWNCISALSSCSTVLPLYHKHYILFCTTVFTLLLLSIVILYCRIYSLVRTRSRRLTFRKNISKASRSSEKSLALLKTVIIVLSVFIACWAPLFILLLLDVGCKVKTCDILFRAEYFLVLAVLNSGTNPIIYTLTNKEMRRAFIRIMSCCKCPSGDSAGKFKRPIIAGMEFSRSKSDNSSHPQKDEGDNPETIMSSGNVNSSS
Put plainly: Human S1P Receptor Calcium FLIPR Antagonist Assay, HeLa Gα16 S1P1. The experiment is classed as cell-based. The note with it: HeLa-S1P1/Gα16 cells; antagonism of Ca2+ signal of probing agonist GNF-AC-1 at EC80. The text has this:
Human S1P Receptor Calcium FLIPR Antagonist Assays
The assay measures intracellular changes of Ca^2+ mediated by the synthetic probing agonist 3-{[2-(2-Trifluoromethyl-biphenyl-4-yl)-benzo[b]thiophen-5-ylmethyl]-amino}-propionic acid (GNF-AC-1) in the HeLa-S1P1/Gα16 cell clone 1: HeLa (human cervix carcinoma, ATCC CCL2) cells stably expressing N-terminally myc-tagged human S1P1 receptors (GenBank™ accession No. NM_001400; UNIPROT P21453) and promiscuous Gα16 protein (GenBank™ accession number M63904, Swissprot P30679) are cultured at 37° C., 5% CO2, and 95% relative humidity. The cells are plated in 384 well black plates (10,000 cells per well). After 24 hours the cells are loaded with Fluo4-AM (1.6 μM in HBSS and 2.5 mM probenicid) for 1 hour at 37° C. After washing, the cells are transferred to the FLIPR. The test compounds are added at different concentrations (≦30 μM) in HBSS in the presence of 0.1% BSA and changes in fluorescence are recorded (indication of agonism). The probing agonist is added 15 minutes afterwards to the wells at a concentration giving 80% of the maximal activity (EC80). After each addition time points are collected as follows: 20 time points (2 seconds) before the addition of the agonist (Fmin) and 60 time points (1 or 2 seconds) after the addition of the probing agonist. This allows the determination of the maximal fluorescence (Fmax). The ratio (Fmax-Fmin)/Fmin is plotted against the log of the concentration of the test compounds and the IC50 (relative antagonism) is determined with the help of XLfit-4 software. […] A dose response curve of the probing agonist is determined on each plate in parallel. The compounds of the invention are typically active in this assay at a concentration ranging typically from <1 nM to 30 μM, usually from less than 1 nanomolar to 1 micromolar.
`Cc1cc(S(=O)(=O)Nc2cccc(-c3ccc(C(=O)N[C@H](C(=O)O)[C@H](C)O)c(C)c3)c2)c(C)cc1Cl` [Example 59, (2S,3S)-2-{[3′-(4-Chloro-2,5-dimethyl-benzenesulfonylamino)-3-methyl-biphenyl-4-carbonyl]-amino}-3-hydroxy-butyric acid]: the IC50 was 0.7 nM.

As to `COC[C@H](NC(=O)c1ccc(-c2cccc(NS(=O)(=O)c3cc(C)c(Cl)cc3C)c2)cc1C)C(=O)O` [Example 60, (S)-2-{[3′-(4-Chloro-2,5-dimethyl-benzenesulfonylamino)-3-methyl-biphenyl-4-carbonyl]-amino}-3-methoxy-propionic acid], the IC50 was 1.5 nM.

On to `Cc1cc(S(=O)(=O)Nc2cccc(-c3ccc(C(=O)N[C@H](C(=O)O)C(C)(C)O)c(C)c3)c2)c(C)cc1Cl` [Example 61, (S)-2-{[3′-(4-Chloro-2,5-dimethyl-benzenesulfonylamino)-3-methyl-biphenyl-4-carbonyl]-amino}-3-hydroxy-3-methyl-butyric acid], for which the IC50 was 0.4 nM.

Take `CC[C@H](NC(=O)c1ccc(-c2cccc(NS(=O)(=O)c3cc(C)c(Cl)cc3C)c2)cc1C)C(=O)O` [Example 62, (S)-2-{[3′-(4-Chloro-2,5-dimethyl-benzenesulfonylamino)-3-methyl-biphenyl-4-carbonyl]-amino}-butyric acid]: the IC50 is 0.5 nM.

In the case of `Cc1cc(S(=O)(=O)Nc2cccc(-c3ccc(C(=O)N[C@@H](C)C(=O)O)c(C)c3)c2)c(C)cc1Cl` [Example 63, (S)-2-{[3′-(4-Chloro-2,5-dimethyl-benzenesulfonylamino)-3-methyl-biphenyl-4-carbonyl]-amino}-propionic acid], the IC50 was found to be 1.3 nM.

Take `Cc1cc(S(=O)(=O)Nc2cccc(-c3ccc(C(=O)NCC(=O)O)c(C)c3)c2)c(C)cc1Cl` [Example 64, {[3′-(4-Chloro-2,5-dimethyl-benzenesulfonylamino)-3-methyl-biphenyl-4-carbonyl]-amino}-acetic acid]: the IC50 is 1.3 nM.

As to `Cc1cc(S(=O)(=O)Nc2cccc(-c3ccc(C(=O)NCc4nnn[nH]4)c(C)c3)c2)c(C)cc1Cl` [Example 66, 3′-(4-Chloro-2,5-dimethyl-benzenesulfonylamino)-3-methyl-biphenyl-4-carboxylic acid (1H-tetrazol-5-ylmethyl)-amide], the IC50 was determined as 5.5 nM.

`COc1cc(-c2cccc(NS(=O)(=O)c3cc(C)c(Cl)cc3C)c2)ccc1C(=O)NCC(=O)O` [Example 70, {[3′-(4-Chloro-2,5-dimethyl-benzenesulfonylamino)-3-methoxy-biphenyl-4-carbonyl]-amino}-acetic acid]: the IC50 stood at 1 nM.

As to `COc1cc(-c2cccc(NS(=O)(=O)c3cc(C)c(Cl)cc3C)c2)ccc1C(=O)N[C@@H](CO)C(=O)O` [Example 71, (S)-2-{[3′-(4-Chloro-2,5-dimethyl-benzenesulfonylamino)-3-methoxy-biphenyl-4-carbonyl]-amino}-3-hydroxy-propionic acid], the IC50 turned out to be 1 nM.

Regarding `Cc1cc(S(=O)(=O)Nc2cccc(-c3cnc(C(=O)N[C@@H](CO)C(=O)O)cn3)c2)c(C)cc1Cl` [Example 79, (S)-2-({5-[3-(4-Chloro-2,5-dimethyl-benzenesulfonylamino)-phenyl]-pyrazine-2-carbonyl}-amino)-3-hydroxy-propionic acid], the IC50 was found to be 5 nM.

Take `Cc1cc(S(=O)(=O)Nc2cccc(-c3ccc(C(=O)N(C)[C@@H](CO)C(=O)O)cc3)c2)c(C)cc1Cl` [Example 85, (S)-2-{[3′-(4-Chloro-2,5-dimethyl-benzenesulfonylamino)-biphenyl-4-carbonyl]-methyl-amino}-3-hydroxy-propionic acid]: the IC50 turned out to be 1.7 nM.

In the case of `Cc1cc(S(=O)(=O)Nc2cccc(-c3ccc(C(=O)N[C@H](CO)C(=O)O)cc3)c2)c(C)cc1Cl` [Example 86], the IC50 stood at 1.5 nM.
